From US8742110B2, “Spiroxazolidinone compounds” (Merck Sharp & Dohme Corp., priority 2010, dated 2014)
Structures can show the parent of a compound that is named as a salt.

Molecular target: SSTR5 (Homo sapiens (Human), UniProt P35346)
Test: SSTR5 binding assay
Conditions: CHO-K1 membranes expressing cloned human SSTR5
Procedure: The receptor-ligand binding assays of all 5 subtype of SSTRs were performed with membranes isolated from Chinese hamster ovary (CHO)-K1 cells stably expressing the cloned human somatostatin receptors in 96-well format as previous reported.
The stable cell lines for SSTR1-SSTR5 were developed by stably transfecting with DNA for all five SSTRs using Lipofectamine. […] The assay buffer consisted of 50 mM TrisHCl (pH 7.8) with 1 mM EGTA, […] MgCl2, leupeptin (10 μg/mL), pepstatin (10 μg/mL), bacitracin (200 μg/mL), and aprotinin (0.5 μg/mL). CHO-K1 cell membranes, radiolabeled somatostatin, and unlabeled test compounds were resuspended or diluted in this assay buffer. Unlabeled test compounds were examined over a range of concentrations from 0.01 nM to 10,000 nM.
Compounds exemplified were tested in the SSTR5 binding assay.

Sequence of SSTR5 (P35346 whole entry): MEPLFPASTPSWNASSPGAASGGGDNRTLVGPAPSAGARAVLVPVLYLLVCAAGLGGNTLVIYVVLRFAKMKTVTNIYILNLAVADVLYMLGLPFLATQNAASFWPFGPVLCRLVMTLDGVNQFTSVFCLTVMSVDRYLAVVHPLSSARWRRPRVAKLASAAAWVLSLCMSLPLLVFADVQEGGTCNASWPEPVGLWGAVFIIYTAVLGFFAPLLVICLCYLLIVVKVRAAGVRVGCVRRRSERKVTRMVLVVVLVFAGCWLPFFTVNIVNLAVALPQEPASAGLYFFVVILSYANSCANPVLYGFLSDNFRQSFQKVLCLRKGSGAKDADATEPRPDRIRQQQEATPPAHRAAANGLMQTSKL

SMILES | IC50 [nM] | IC50 (TFA salt) [nM]
CCOc1ccc(-c2nn(-c3ccccc3)cc2CN2CCC3(CC2)CN(c2ccc(C(=O)O)cc2)C(=O)O3)cc1 [Example 1-12, 4-(8-{[3-(4-Ethoxyphenyl)-1-phenyl-1H-pyrazol-4-yl]methyl}-2-oxo-1-oxa-3,8-diazaspiro[4.5]dec-3-yl)benzoic acid, TFA salt] | 5.32 | –
CC(C)(C)n1cc(CN2CCC3(CC2)CN(c2ccc(C(=O)O)c(Cl)c2)C(=O)O3)c(-c2cc(F)c(Cl)cc2F)n1 [Example 1-13, 4-(8-{[1-tert-Butyl-3-(4-chloro-2,5-difluorophenyl)-1H-pyrazol-4-yl]methyl}-2-oxo-1-oxa-3,8-diazaspiro[4.5]dec-3-yl)-2-chlorobenzoic acid, TFA salt] | 4.09 | –
COc1ccccc1-c1nn(C(C)(C)C)cc1CN1CCC2(CC1)CN(c1ccc(C(=O)O)cc1)C(=O)O2 [Example 1-14, 4-(8-{[1-tert-butyl-3-(2-Methoxyphenyl)-1H-pyrazol-4-yl]methyl}-2-oxo-1-oxa-3,8-diazaspiro[4.5]dec-3-yl)benzoic acid, TFA salt] | – | 4.7
CC(C)n1cc(CN2CCC3(CC2)CN(c2ccc(C(=O)O)cc2)C(=O)O3)c(-c2ccc(F)c(F)c2F)n1 [Example 1-17, 4-(2-Oxo-8-{[1-(propan-2-yl)-3-(2,3,4-trifluorophenyl)-1H-pyrazol-4-yl]methyl}-1-oxa-3,8-diazaspiro[4.5]dec-3-yl)benzoic acid, TFA salt] | 2.14 | –
CCCCn1cc(CN2CCC3(CC2)CN(c2ccc(C(=O)O)cc2)C(=O)O3)c(-c2ccc(F)c(F)c2F)n1 [Example 1-18, 4-(8-{[1-Butyl-3-(2,3,4-trifluorophenyl)-1H-pyrazol-4-yl]methyl}-2-oxo-1-oxa-3,8-diazaspiro[4.5]dec-3-yl)benzoic acid, TFA salt] | 2.7 | –
O=C(O)c1ccc(N2CC3(CCN(Cc4cn(C5CCCCC5)nc4-c4ccc(F)c(F)c4F)CC3)OC2=O)cc1 [Example 1-19, 4-(8-{[1-Cyclohexyl-3-(2,3,4-trifluorophenyl)-1H-pyrazol-4-yl]methyl}-2-oxo-1-oxa-3,8-diazaspiro[4.5]dec-3-yl)benzoic acid, TFA salt] | 1.33 | –
O=C(O)c1ccc(N2CC3(CCN(Cc4cn(-c5ccc(F)cc5)nc4-c4ccc(F)cc4)CC3)OC2=O)cc1 [Example 1-20, 4-(8-{[1,3-Bis(4-fluorophenyl)-1H-pyrazol-4-yl]methyl}-2-oxo-1-oxa-3,8-diazaspiro[4.5]dec-3-yl)benzoic acid, TFA salt] | 5.33 | –
O=C(O)c1ccc(N2CC3(CCN(Cc4cn(-c5cccc6c5OCCO6)nc4-c4ccc(F)c(F)c4F)CC3)OC2=O)cc1 [Example 1-21, 4-(8-{[1-(2,3-Dihydro-1,4-benzodioxin-5-yl)-3-(2,3,4-trifluorophenyl)-1H-pyrazol-4-yl]methyl}-2-oxo-1-oxa-3,8-diazaspiro[4.5]dec-3-yl)benzoic acid, TFA salt] | 3.21 | –
COc1cccc(-c2nn(-c3ccccc3)cc2CN2CCC3(CC2)CN(c2ccc(C(=O)O)cc2)C(=O)O3)c1 [Example 1-22, 4-(8-{[3-(3-Methoxyphenyl)-1-phenyl-1H-pyrazol-4-yl]methyl}-2-oxo-1-oxa-3,8-diazaspiro[4.5]dec-3-yl)benzoic acid, TFA salt] | 4.87 | –
O=C(O)c1ccc(N2CC3(CCN(Cc4cn(C5CCCCC5)nc4-c4ccc(OC(F)(F)F)cc4)CC3)OC2=O)cc1 [Example 1-23, 4-[8-({1-Cyclohexyl-3-[4-(trifluoromethoxy)phenyl]-1H-pyrazol-4-yl}methyl)-2-oxo-1-oxa-3,8-diazaspiro[4.5]dec-3-yl]benzoic acid, TFA salt] | 2.26 | –
O=C(O)c1ccc(N2CC3(CCN(Cc4cn(C5CCCCC5)nc4-c4ccc(C(F)(F)F)cc4)CC3)OC2=O)cc1 [Example 1-24, 4-[8-({1-Cyclohexyl-3-[4-(trifluoromethyl)phenyl]-1H-pyrazol-4-yl}methyl)-2-oxo-1-oxa-3,8-diazaspiro[4.5]dec-3-yl]benzoic acid, TFA salt] | 2.01 | –

Other lines, results leading:

IC50 [nM] | IC50 (TFA salt) [nM] | SMILES
0.74 | – | CC1(C)C2CCC(C2)C1n1cc(CN2CCC3(CC2)CN(c2ccc(C(=O)O)cc2)C(=O)O3)c(-c2ccc(F)c(F)c2F)n1 (centres unmarked) [Example 1-25, 4-(8-{[1-(3,3-Dimethylbicyclo[2.2.1]hept-2-yl)-3-(2,3,4-trifluorophenyl)-1H-pyrazol-4-yl]methyl}-2-oxo-1-oxa-3,8-diazaspiro[4.5]dec-3-yl)benzoic acid, TFA salt]
2.72 | – | O=C(O)c1ccc(N2CC3(CCN(Cc4cn(-c5ccc6ccccc6c5)nc4-c4ccc(F)c(F)c4F)CC3)OC2=O)cc1 [Example 1-26, 4-(8-{[1-(Naphthalen-2-yl)-3-(2,3,4-trifluorophenyl)-1H-pyrazol-4-yl]methyl}-2-oxo-1-oxa-3,8-diazaspiro[4.5]dec-3-yl)benzoic acid, TFA salt]
12.9 | – | O=C(O)c1ccc(N2CC3(CCN(Cc4cn(-c5ccccc5)nc4-c4ccc(OC(F)(F)F)cc4)CC3)OC2=O)cc1 [Example 1-27, 4-[2-Oxo-8-({1-phenyl-3-[4-(trifluoromethoxy)phenyl]-1H-pyrazol-4-yl}methyl)-1-oxa-3,8-diazaspiro[4.5]dec-3-yl]benzoic acid, TFA salt]
0.421 | – | CC(C)(C)n1cc(CN2CCC3(CC2)CN(c2ccc(C(=O)O)cc2)C(=O)O3)c(-c2ccc(F)c(Cl)c2)n1 [Example 1-28, 4-(8-{[1-tert-Butyl-3-(3-chloro-4-fluorophenyl)-1H-pyrazol-4-yl]methyl}-2-oxo-1-oxa-3,8-diazaspiro[4.5]dec-3-yl)benzoic acid, TFA salt]
0.582 | – | CC(C)(C)n1cc(CN2CCC3(CC2)CN(c2ccc(-c4nn[nH]n4)cc2)C(=O)O3)c(-c2cc(F)c(Cl)cc2F)n1 [Example 1-29, 8-{[1-tert-Butyl-3-(4-chloro-2,5-difluorophenyl)-1H-pyrazol-4-yl]methyl}-3-[4-(2H-tetrazol-5-yl)phenyl]-1-oxa-3,8-diazaspiro[4.5]decan-2-one, TFA salt]
1.95 | – | CC(C)(C)n1cc(CN2CCC3(CC2)CN(c2ccc(C(=O)O)cc2)C(=O)O3)c(-c2ccc(F)cc2F)n1 [Example 1-30, 4-(8-{[1-tert-Butyl-3-(2,4-difluorophenyl)-1H-pyrazol-4-yl]methyl}-2-oxo-1-oxa-3,8-diazaspiro[4.5]dec-3-yl)benzoic acid, TFA salt]
2.09 | – | CC(C)(C)n1cc(CN2CCC3(CC2)CN(c2ccc(C(=O)O)cc2)C(=O)O3)c(-c2cc(F)c(Cl)cc2F)n1 [Example 1-31, 4-(8-{[1-tert-Butyl-3-(4-chloro-2,5-difluorophenyl)-1H-pyrazol-4-yl]methyl}-2-oxo-1-oxa-3,8-diazaspiro[4.5]dec-3-yl)benzoic acid, TFA salt]
2.05 | – | COc1ccc(-c2nn(C(C)(C)C)cc2CN2CCC3(CC2)CN(c2ccc(C(=O)O)cc2)C(=O)O3)c(F)c1 [Example 1-32, 4-(8-{[1-tert-Butyl-3-(2-fluoro-4-methoxyphenyl)-1H-pyrazol-4-yl]methyl}-2-oxo-1-oxa-3,8-diazaspiro[4.5]dec-3-yl)benzoic acid, TFA salt]
1.29 | – | O=C(O)c1ccc(N2CC3(CCN(Cc4cn(C5CCCCC5)nc4-c4cc(F)c(F)cc4F)CC3)OC2=O)cc1 [Example 1-33, 4-(8-{[1-Cyclohexyl-3-(2,4,5-trifluorophenyl)-1H-pyrazol-4-yl]methyl}-2-oxo-1-oxa-3,8-diazaspiro[4.5]dec-3-yl)benzoic acid, TFA salt]
4.67 | – | O=C(O)c1ccc(N2CC3(CCN(Cc4cn(-c5ccccc5)nc4-c4ccc(F)c(Cl)c4)CC3)OC2=O)cc1 [Example 1-34, 4-(8-{[3-(3-Chloro-4-fluorophenyl)-1-phenyl-1H-pyrazol-4-yl]methyl}-2-oxo-1-oxa-3,8-diazaspiro[4.5]dec-3-yl)benzoic acid, TFA salt]
36.2 | – | CC(C)(C)c1nn(-c2ccc(F)cc2)cc1CN1CCC2(CC1)CN(c1ccc(C(=O)O)cc1)C(=O)O2 [Example 1-35, 4-(8-{[3-tert-Butyl-1-(4-fluorophenyl)-1H-pyrazol-4-yl]methyl}-2-oxo-1-oxa-3,8-diazaspiro[4.5]dec-3-yl)benzoic acid, TFA salt]
509 | – | CCOc1nn(C(C)(C)C)cc1CN1CCC2(CC1)CN(c1ccc(C(=O)O)cc1)C(=O)O2 [Example 1-36, 4-{8-[(1-tert-Butyl-3-ethoxy-1H-pyrazol-4-yl)methyl]-2-oxo-1-oxa-3,8-diazaspiro[4.5]dec-3-yl}benzoic acid, TFA salt]
1.59 | – | Cc1cc(C(=O)O)ccc1N1CC2(CCN(Cc3cn(C(C)(C)C)nc3-c3ccc(F)c(F)c3F)CC2)OC1=O [Example 1-37, 4-(8-{[1-tert-Butyl-3-(2,3,4-trifluorophenyl)-1H-pyrazol-4-yl]methyl}-2-oxo-1-oxa-3,8-diazaspiro[4.5]dec-3-yl)-3-methylbenzoic acid, TFA salt]
5.29 | – | CC(C)(C)Cn1cc(CN2CCC3(CC2)CN(c2ccc(C(=O)O)cc2)C(=O)O3)c(-c2ccc(F)c(Cl)c2)n1 [Example 1-38, 4-(8-{[3-(3-Chloro-4-fluorophenyl)-1-(2,2-dimethylpropyl)-1H-pyrazol-4-yl]methyl}-2-oxo-1-oxa-3,8-diazaspiro[4.5]dec-3-yl)benzoic acid, TFA salt]
44.6 | – | O=C(O)c1ccc(N2CC3(CCN(Cc4c(-c5cc(F)c(F)cc5F)nn(-c5ccccc5)c4Cl)CC3)OC2=O)cc1 [Example 1-39, 4-(8-{[5-Chloro-1-phenyl-3-(2,4,5-trifluorophenyl)-1H-pyrazol-4-yl]methyl}-2-oxo-1-oxa-3,8-diazaspiro[4.5]dec-3-yl)benzoic acid, TFA salt]
